# Reference: patent publication US20120040920A1, “OLIGOSACCHARIDE ALDONIC ACIDS AND THEIR TOPICAL USE” (priority 1999, published 2012)
# Experiments:
# [1] = antioxidant property, anthralin test method; type: physicochemical
# Excerpt: (§1) An antioxidant may be defined as a substance capable of preventing or inhibiting oxidation. […] The antioxidant property is readily determined by using any one of the following test methods: prevention or retardation of air oxidation of (a) anthralin, (b) hydroquinone, or (c) banana peel. A freshly prepared anthralin solution or cream is bright yellow, and an air oxidized one is brownish or black. A hydroquinone solution or cream is colorless or white color, and an air oxidized one is brownish or black. A freshly peeled banana peel is light yellow in color and an oxidized one ranges in color from tan, dark tan, brown to brownish black.
# Antioxidant property of an oligosaccharide aldonic acid may be determined by utilizing anthralin test method as follows.
# Anthralin also known as dithranol is a yellowish powder, and a composition containing anthralin without a suitable antioxidant is chemically unstable even at room temperature. For example, anthralin 0.05% in an oil-in-water cream changed in color from yellow to gray within 24 hours at room temperature, and the cream became brownish within 48 hours. Under anhydrous condition, anthralin 0.05% ointment prepared from white petrolatum 2 parts and mineral oil 1 part by weight changed in color from bright yellow to grayish yellow within 24 hours, and the ointment became brownish after 12 days at room temperature.
# Based on the above observations, an oil-in-water cream containing 0.4% anthralin with or without a known antioxidant was used as a positive or vehicle control.
# [2] = antioxidant property, hydroquinone test method; type: physicochemical; details: oil-in-water cream, 2% hydroquinone, test substance 0.4 M, room temperature, 5 days
# Excerpt: as §1
# Antioxidant property of an oligosaccharide aldonic acid may also be determined by utilizing hydroquinone test method as follows. Hydroquinone also known as 1,4-dihydroxybenzene is a white powder, and a composition containing hydroquinone without a suitable antioxidant is chemically unstable even at room temperature. For example, hydroquinone 2% in an oil-in-water cream changed in color from white to grey within 2 hours, and the cream became light brown within 48 hours and dark brown after 72 hours at room temperature.
# [3] = antioxidant property, banana peel test method; details: for colour of banana peels: 1×2 cm peels in 5 ml 0.1 M solution, room temperature
# Excerpt: as §1
# For example, in control experiments, fresh banana peels cut into sizes of 1×2 cm in 50 mm plastic petri dishes containing 5 ml water at neutral or acidic pH changed in color from white-yellowish to tan within 6 hours at room temperature, and changed to dark tan color during the next period of 24 to 72 hours.
# Antioxidant property of an oligosaccharide aldonic acid may also be determined by utilizing banana peel test method as follows.
# A fresh ripe banana peel cut into sizes of 2×2 cm has the outer layer light yellow in color. These freshly cut banana peels after exposed to air or immersed in an aqueous solution without an antioxidant in 50 mm plastic petri dishes rapidly changed in color from yellowish to tan within 3 hours, dark tan within 24 hours and brown black after 72 hours. A test substance including a positive control such as vitamin C, citric acid or N-acetylcysteine was prepared as 0.1 M concentration, and each test dish contained 5 ml test solution. Freshly cut banana peels 2×2 cm in sizes were immersed in 5 ml test solutions including known antioxidants and vehicle controls with pH at 7.0 and 4.0. […] The same results were also found for the known antioxidant substances; vitamin C, citric acid and N-acetylcysteine.
# [4] = tested on: skin changes associated with aging; assay: skin thickness of forearm by micrometer calipers after topical application; type: in vivo, human; details: twice daily, four weeks, person
# Experimental: In one of the studies related to skin changes associated with aging, skin thickness was measured by micrometer calipers as follows:
# The skin was grasped with a 2×6 cm metal hinge; the internal faces of which were coated with emery cloth to prevent slippage, and manually squeezed to threshold subject discomfort. Combined thickness of two whole-skin layers including thickness of the two hinge leaves was measured with micrometer calipers. Thickness of the two hinge leaves was subtracted to determine the actual thickness of two whole-skin layers. Triplicate measurements on treated sites were done and an average number was used for calculation of the skin thickness.
# A subject, topically applied twice daily to their left forearm for four weeks lactobionic acid 22% in a solution prepared from water 7 parts and propylene glycol 3 parts. After four weeks their right forearm was still loose and relatively thin, and the skin was relatively rough and dry. […] While there was no change in skin thickness of their right forearm, their left forearm had increased 12% in skin thickness as measured by the micrometer calipers described in the Example.
# [5] = tested on: skin fissures (open cuts); assay: topical treatment of skin fissures at finger tips; type: in vivo, human; details: 10% oil-in-water cream twice daily, person
# Experimental: A subject, having two skin fissures (open cuts) 2-3 mm long at the finger tips, extending from the hyponychia, topically applied twice daily lactobionic acid 10% oil-in-water cream to one fissure for one week. The other fissure was treated with a vehicle control.
# [6] = tested on: chronic gum disease of bleeding; assay: oral gurgling treatment of chronic gum disease; type: in vivo, human; details: 5% in molecular complex with 1% L-arginine, pH 3.3, gurgling twice daily, one week, person
# Experimental: Lactobionic acid 50% aqueous solution 10 g was diluted with 60 ml water and 10 ml propylene glycol, and the solution had pH 2.1. L-Arginine 5% solution 20 g prepared from 8 parts water and 2 parts propylene glycol by volume was added to form molecular complex of amphoteric system as shown by the increase of pH to 3.3. The composition thus formulated contained 5% lactobionic acid in molecular complex with 1% L-arginine.
# A subject, having chronic gum disease of bleeding during the tooth brushing, used the above bionic acid complex composition twice daily as a gurgling solution with at least one minute of contact time in oral cavity. No food or drink was taken for the next 30 minutes.
# [7] = tested on: circular wounds 0.5 mm in depth; assay: healing of circular 4 mm biopsy punch wounds on forearm; type: in vivo, human; details: 2% in distilled water
# Excerpt: A sterile 4 mm skin biopsy punch was used to make two circular wounds 0.5 mm in depth on alcohol-swabbed left forearm of a healthy subject. The wounds were swabbed dry with cotton balls. A control solution containing 0.9% sodium chloride in distilled water was applied to one circular wound, and a test solution containing 2% lactobionic acid in distilled water was applied to the other circular wound. Both wounds were covered with 3M Tegaderm tapes for five days. […] The erythema disappeared from both skin sites at the end of nine days.
# [8] = tested on: contact dermatitis or erythema; assay: topical treatment of facial erythema caused by glycolic acid cream; type: in vivo, human; details: 5% partially neutralized cream, three applications over 24 hour period, person; control side persisted
# Excerpt: A subject, developed contact dermatitis or erythema on their face after topical applications of 20% unneutralized glycolic acid cream. They applied 5% partially neutralized lactobionic acid cream on the left side of their face and a control cream on the right side of their face.
smiles,measurement,setting,value
O=C(O)[C@H](O)[C@@H](O)[C@H](O[C@@H]1O[C@H](CO)[C@H](O)[C@H](O)[C@H]1O)[C@H](O)CO [lactobionic acid],antioxidant grade,[1]; anthralin and hydroquinone test methods,moderate antioxidant
same,colour change of anthralin cream,"[1]; oil-in-water cream, 0.4% anthralin, test substance 0.1 M, 24 hours",did not change the color
same,colour change of hydroquinone cream,[2],did not change color
same,colour of banana peels,[3]; 24 hours,remained white-yellowish
same,colour of banana peels,[3]; after 72 hours,changed in color to tan
same,colour change of banana peels,"[3]; 2×2 cm peels in 5 ml 0.1 M test solution, water control tan within 4 hours",did not change color
same,increase in skin thickness,"[4]; 22% in water/propylene glycol 7:3 solution, left forearm",12%
same,skin condition of treated forearm,[4]; 22% solution,"more firm and plump, and the skin was smooth, soft and not dry"
same,healing of skin fissure,"[5]; after a week, vehicle site unhealed",skin fissure healed completely
same,pain of skin fissure,[5],pain disappeared after a few days
same,gum bleeding during tooth brushing,[6],gum bleeding stopped or became less noticeable
same,wound healing,"[7]; covered five days, end of one week, saline control not epithelialized",healed with re-epithelialization
same,time to disappearance of erythema,[7]; same at control site,nine
same,erythema of facial skin,[8],improved substantially and the erythema became less noticeable
